# Test results as given in patent EP4790066A1, “GLP-1R/GIPR/GCGR TRIPLE AGONIST ANALOGUE AND USE THEREOF” (Shenzhen Bay Laboratory, priority 2023, dated 2025).
# *1 amine or outer side, *2 acyl side, *3 side chain or, on linkers, in order; H or OH if unused. Where a SMILES comes first, the peptide text is derived from it. Bridges are numbered along the chain shown (N, C = ends). [ ]: non-standard residue; d: D form. X1 = O=C(O)CCCCCCCCCCCCCCCCCCC(=O)N[C@@H](CCCCNC(=O)COCCOCCNC(=O)COCCOCCNC(=O)CCC(=O)N(CCNC(=O)C[*:1])CCNC(=O)C[*:2])C(=O)O; Phe(2-F) = N[C@@H](Cc1ccccc1F)C(=O)O; αMeL = CC(C)C[C@](C)(N)C(=O)O; Aib = CC(C)(N)C(=O)O
# Legend:
# Assay type in all cases: cell-based
# GLP-1R = target: T1, GLP-1R (Homo sapiens, UniProt P43220); test: CreLuc method (CRE-luciferase reporter), HEK293/pGM-CREB-L-Luc/GLP-1R pool; conditions: 6 h incubation, read-out: EC50 (pM) for each receptor GLP-1R
# T1 construct: expressed in transfected cells
# Method in brief: (§1)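 Stable HEK293 pools co-expressing each receptor with a CRE-luciferase reporter were plated at 20,000 cells/well in freestyle medium and treated with compound dilution series for 6 h at 37 °C. Luminescence was read with ONE-GLO to derive EC50.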
# GIPR [1] = target: T2, GIPR (Homo sapiens, UniProt P48546); test: CreLuc method (CRE-luciferase reporter), HEK293/pGM-CREB-L-Luc/GIPR pool; conditions: 6 h incubation, read-out: EC50 (pM) for each receptor GIPR
# T2 construct: expressed in transfected cells
# T2 sequence (P48546 22-466): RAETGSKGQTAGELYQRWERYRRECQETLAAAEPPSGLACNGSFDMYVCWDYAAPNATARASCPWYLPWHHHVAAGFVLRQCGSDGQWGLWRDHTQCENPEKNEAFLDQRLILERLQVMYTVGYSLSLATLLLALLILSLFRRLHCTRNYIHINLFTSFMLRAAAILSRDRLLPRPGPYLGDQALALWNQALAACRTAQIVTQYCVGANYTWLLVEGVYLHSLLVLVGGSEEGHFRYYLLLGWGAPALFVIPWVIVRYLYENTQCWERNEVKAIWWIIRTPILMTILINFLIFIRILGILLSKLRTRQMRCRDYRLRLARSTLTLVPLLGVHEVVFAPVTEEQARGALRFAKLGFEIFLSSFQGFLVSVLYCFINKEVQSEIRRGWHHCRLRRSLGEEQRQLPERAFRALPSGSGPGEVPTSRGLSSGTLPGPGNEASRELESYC
# Method in brief: as §1
# GCGR [2] = target: T3, GCGR (Homo sapiens, UniProt P47871); test: CreLuc method (CRE-luciferase reporter), 293HEK/pGM-CREB-L-Luc/GCGR pool; conditions: 6 h incubation, read-out: EC50 (pM) for each receptor GCGR
# T3 construct: expressed in transfected cells
# Method in brief: as §1
# GIPR [3] = target: T2, GIPR; test: cAMP method (HTRF cAMP detection kit), HEK293/pGM-CREB-L-Luc/GIP pool; conditions: read-out: EC50 (pM) for each receptor GIPR
# Experimental: (§2) 2. Insulinotropic analogues can bind to target receptors on the cell membrane, activate the receptors, and induce release. The activity of the test substance can be determined using the HTRF method with a cAMP detection kit. Therefore, the cAMP method can be used to detect the target peptide derivatives (or polypeptide derivatives, i.e., TG1-TG86) prepared in Example 1 and Example 2. […] The test cell line was selected, treated with cAMP-specific trypsin for digestion. 3 mL of serum-free DMEM culture medium was added, and the cells were pipetted, resuspended, and counted. 5 µL of IBMX (prepared with serum-free DMEM medium, 0.5 mM) and test cells (5 µL/7500 cells/well) were added in a 384-well plate sequentially. The plate was incubated at 37°C under 5% CO2 for 30 min, followed by the addition of cAMP-d2 (5 µL, 1x) and Anti-cAMP-Cryptate (5 µL, 1x). The mixture was kept at room temperature for 1 h, after which the HTRF value was measured using a chemiluminescent microplate reader, and the determination result was recorded. […] Table 4: EC50 values for target peptide derivatives
# GCGR [4] = target: T3, GCGR; test: cAMP method (HTRF cAMP detection kit), HEK293/pGM-CREB-L-Luc/GCG pool; conditions: read-out: EC50 (pM) for each receptor GCGR
# Experimental: as §2
# T3 sequence (P47871 26-477, species assumed): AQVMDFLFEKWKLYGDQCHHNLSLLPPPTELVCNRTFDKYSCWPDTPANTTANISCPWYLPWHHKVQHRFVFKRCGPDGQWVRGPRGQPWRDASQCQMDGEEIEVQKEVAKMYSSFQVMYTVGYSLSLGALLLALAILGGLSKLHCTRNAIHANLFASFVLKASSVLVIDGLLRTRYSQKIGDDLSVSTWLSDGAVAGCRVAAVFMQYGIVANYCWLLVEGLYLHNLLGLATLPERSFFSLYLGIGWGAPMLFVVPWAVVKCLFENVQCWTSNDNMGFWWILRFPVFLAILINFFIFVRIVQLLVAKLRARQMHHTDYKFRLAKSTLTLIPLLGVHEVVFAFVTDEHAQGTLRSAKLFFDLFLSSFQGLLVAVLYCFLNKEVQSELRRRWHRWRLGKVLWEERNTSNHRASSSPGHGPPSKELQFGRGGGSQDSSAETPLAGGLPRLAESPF
# T1 sequence (P43220 24-463, species assumed): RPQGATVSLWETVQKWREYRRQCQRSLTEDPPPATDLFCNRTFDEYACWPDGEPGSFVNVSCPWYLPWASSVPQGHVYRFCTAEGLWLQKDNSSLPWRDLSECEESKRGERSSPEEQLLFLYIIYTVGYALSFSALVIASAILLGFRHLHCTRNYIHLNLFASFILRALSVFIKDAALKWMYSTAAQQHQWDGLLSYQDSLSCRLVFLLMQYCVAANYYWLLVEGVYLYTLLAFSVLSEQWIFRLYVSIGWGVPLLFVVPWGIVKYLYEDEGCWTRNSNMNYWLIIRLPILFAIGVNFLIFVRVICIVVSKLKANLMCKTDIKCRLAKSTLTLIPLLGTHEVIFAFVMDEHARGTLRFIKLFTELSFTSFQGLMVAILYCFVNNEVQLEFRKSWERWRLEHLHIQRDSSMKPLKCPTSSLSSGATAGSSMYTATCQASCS
SMILES,EC50 (GLP-1R),EC50 (GIPR [1]),EC50 (GCGR [2]),EC50 (GIPR [3]),EC50 (GCGR [4])
CC[C@H](C)[C@H](NC(=O)[C@H](Cc1ccccc1)NC(=O)[C@H](C)NC(=O)[C@@H]1CSCC(=O)NCCN(C(=O)CCC(=O)NCCOCCOCC(=O)NCCOCCOCC(=O)NCCCC[C@H](NC(=O)CCCCCCCCCCCCCCCCCCC(=O)O)C(=O)O)CCNC(=O)CSC[C@H](NC(=O)[C@H](CCCCN)NC(=O)[C@H](CC(=O)O)NC(=O)[C@H](CC(C)C)NC(=O)[C@](C)(CC(C)C)NC(=O)[C@@H](NC(=O)[C@H](CO)NC(=O)[C@H](Cc2ccc(O)cc2)NC(=O)[C@H](CC(=O)O)NC(=O)[C@H](CO)NC(=O)[C@@H](NC(=O)[C@H](Cc2ccccc2F)NC(=O)[C@@H](NC(=O)CNC(=O)[C@H](CCC(N)=O)NC(=O)C(C)(C)NC(=O)[C@@H](N)Cc2ccc(O)cc2)[C@@H](C)O)[C@@H](C)O)[C@@H](C)CC)C(=O)N[C@@H](C)C(=O)N[C@@H](CCC(N)=O)C(=O)N1)C(=O)N[C@@H](CCC(=O)O)C(=O)N[C@@H](Cc1ccc(O)cc1)C(=O)N[C@@H](CC(C)C)C(=O)N[C@@H](CC(C)C)C(=O)N[C@@H](C)C(=O)NCC(=O)NCC(=O)N1CCC[C@H]1C(=O)N[C@@H](CO)C(=O)N[C@@H](CO)C(=O)NCC(=O)N[C@@H](C)C(=O)N1CCC[C@H]1C(=O)N1CCC[C@H]1C(=O)N1CCC[C@H]1C(=O)N[C@@H](CO)C(N)=O [TG59] (H-Y[Aib]QGT[Phe(2-F)]TSDYSI[αMeL]LDKCAQCAFIEYLLAGGPSSGAPPPS-NH2; linker 17-20 via X1),51.8 pM,30.7 pM,392 pM,3.9 pM,9.1 pM
CC[C@H](C)[C@@H]1NC(=O)[C@H](Cc2ccccc2)NC(=O)[C@@H](NC(=O)C(C)(C)NC(=O)[C@H](CCC(N)=O)NC(=O)[C@H](C)NC(=O)[C@H](CCCCNC(C)=O)NC(=O)[C@](C)(CCCCN)NC(=O)[C@H](CC(=O)O)NC(=O)[C@H](CC(C)C)NC(=O)[C@](C)(CC(C)C)NC(=O)[C@@H](NC(=O)[C@](C)(CO)NC(=O)[C@H](Cc2ccc(O)cc2)NC(=O)[C@H](CC(=O)O)NC(=O)[C@H](CO)NC(=O)[C@@H](NC(=O)[C@H](Cc2ccccc2F)NC(=O)[C@@H](NC(=O)CNC(=O)[C@H](CCC(N)=O)NC(=O)C(C)(C)NC(=O)[C@@H](N)Cc2ccc(O)cc2)[C@@H](C)O)[C@@H](C)O)[C@@H](C)CC)CSCC(=O)NCCN(C(=O)CCC(=O)NCCOCCOCC(=O)NCCOCCOCC(=O)NCCCC[C@H](NC(=O)CCCCCCCCCCCCCCCCCCC(=O)O)C(=O)O)CCNC(=O)CSC[C@@H](C(=O)NCC(=O)NCC(=O)N2CCC[C@H]2C(=O)N[C@@H](CO)C(=O)N[C@@H](CO)C(=O)NCC(=O)N[C@@H](C)C(=O)N2CCC[C@H]2C(=O)N2CCC[C@H]2C(=O)N2CCC[C@H]2C(=O)N[C@@H](CO)C(N)=O)NC(=O)[C@H](CC(C)C)NC(=O)[C@H](CC(C)C)NC(=O)[C@H](Cc2ccc(O)cc2)NC(=O)[C@H](CCC(=O)O)NC1=O [TG61],264 pM,12.6 pM,268 pM,5.9 pM,12.4 pM
